{"source": "patent US20160303189A1", "about": "“Applications of Recombined Ganoderma Lucidum Immunoregulation Protein in Preparing Drugs for Treating Tissue Fibrosis” (priority 2014, published 2016)", "key": {"[1]": {"system": "myocardial tissue of mice (myocardial fibrosis model)", "assay": "Establishment of Dox mice myocardial fibrosis models, histological grading;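 also: mice given Dox by injection twice weekly, hearts fixed in paraformaldehyde and scored histologically, with sampling on days 35, 42 and 49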", "experimental": "100 female Kunming mice weighed 18-22 g were picked and divided into 5 groups: saline group, model group 1 (Dox 1 mg/kg), model group 2 (Dox 2 mg/kg), model group 3 (Dox 3 mg/kg) model group 4 (Dox 4 mg/kg), the number of mice in each group were 15, 15, 25, 30 and 15. Twice a week, every mouse was injected 2000 every time, in which 1 mg/kg Dox, 2 mg/kg Dox, 3 mg/kg Dox or 4 mg/kg Dox was dissolved.\nThe activities of the mice were closely watched and deaths of the mice were recorded every day at 5:00 pm and 9:00 am. Three days, the 35th the 42nd and the 49th day were chosen to take samples. After deaths, hearts of the mice were taken and rinsed with cold PBS and placed on a clean dry filter paper, then they were put into paraformaldehyde solution to be fixed. The models to assess myocardial fibrosis were established according to histological analysis, the changes in ventricular cavity of the mice, perivascular fibrosis, interstitial fibrosis, and vacuole formation and other changes were taken into consideration to determine whether the model was useable."}, "[2]": {"system": "mice (renal fibrosis model)", "assay": "Model making of renal fibrosis of mice with cisplatin (CDDP), survival and weight", "format": "in vivo", "procedure": "The number of mice in each group was 12, 12 and 12. They were given intraperitoneal injections for 200 μl/per time/per mouse for 5 consecutive days, and the injectionvolumes contained the appropriate doses of cisplatin (CDDP). On the 1st, the 3rd, the 5th, the 7th, the 14th and the 28th days the mice were weighed and the statistics for the survival rates in each group were recorded."}, "[3]": {"system": "BLM-induced pulmonary fibrosis", "assay": "Effect of rLZ-8 on BLM-induced pulmonary fibrosis of mice, Szapiel grading", "format": "in vivo", "conditions": "Group F: positive drug dexamethasone 4 mg/kg injected, n=12", "from_the_text": "Experiment groups: there were 7 groups in the experiment and 12 mice in each group. The groups were a saline group (group A), a model group (group B), a low treatment dose group (group C), a medium dose group (group D), a high dose group (group E), a positive control group (group F) and an administration group one week after modeling (group G). The process of modeling was the same as the embodiment 1.\nTreating process: groups B, C, D, E, F and G all adopted low BLM dose for modeling. Group A and Group B were injected with saline for serving as contrast groups; Groups C, D and E were injected with rLZ-8 each day for treatment. Mice in these groups were weighed every 3 days and drugs were administrated according to weights of the mice. The dose for Group C was 3.84375 μg/kg, the dose for Group D was 7.6875 μg/kg, the dose for Group E was 19.21875 μg/kg, Group F were injected with positive drug dexamethasone 4 mg/kg, Group G were injected with rLZ-8 for treatment 1 week after modeling and the dose was 7.6875 μg/kg.\nOn the 14th day and the 21st day, 6 mice were randomly picked and killed in each group. Lungs of the mice were taken out to watch the color of the lungs, if the surface was intact or not, and the changes in the lung surface; parts of the lung tissue were paraffin sectioned and HE stained to be examined histologically; other parts were done with RT-PCR to examine the RNA level. According to histological analysis, RNA level, protein level and the change in the amount of inflammatory cells, the grades of fibrosis were decided."}, "[4]": {"conditions": "Dox accumulated dose 30, 10 mice"}, "[5]": {"conditions": "Dox accumulated dose 36, 10 mice"}, "[6]": {"conditions": "Dox accumulated dose 42 (3 mg/kg twice a week for 7 weeks), 9 mice"}}}
{"smiles": "COc1cccc2c1C(=O)c1c(O)c3c(c(O)c1C2=O)C[C@@](O)(C(=O)CO)C[C@@H]3O[C@H]1C[C@H](N)[C@H](O)[C@H](C)O1", "note": "[Doxorubicin]", "values": [{"measurement": "Interstitial Fibrosis grade 0, number of mice", "setting": "[1]; [4]", "result": 9}, {"measurement": "Interstitial Fibrosis grade +++, number of mice", "setting": "[1]; [4]", "result": 0}, {"measurement": "Interstitial Fibrosis grade ++, number of mice", "setting": "[1]; [4]", "result": 0}, {"measurement": "Interstitial Fibrosis grade +, number of mice", "setting": "[1]; [4]", "result": 1}, {"measurement": "Number of deaths", "setting": "[1]; [4]", "result": 0}, {"measurement": "Perivascular Fibrosis grade 0, number of mice", "setting": "[1]; [4]", "result": 7}, {"measurement": "Perivascular Fibrosis grade +++, number of mice", "setting": "[1]; [4]", "result": 0}, {"measurement": "Perivascular Fibrosis grade ++, number of mice", "setting": "[1]; [4]", "result": 0}, {"measurement": "Perivascular Fibrosis grade +, number of mice", "setting": "[1]; [4]", "result": 3}, {"measurement": "Vacuolization grade 0, number of mice", "setting": "[1]; [4]", "result": 10}, {"measurement": "Vacuolization grade +++, number of mice", "setting": "[1]; [4]", "result": 0}, {"measurement": "Vacuolization grade ++, number of mice", "setting": "[1]; [4]", "result": 0}, {"measurement": "Vacuolization grade +, number of mice", "setting": "[1]; [4]", "result": 0}, {"measurement": "Interstitial Fibrosis grade 0, number of mice", "setting": "[1]; [5]", "result": 10}, {"measurement": "Interstitial Fibrosis grade +++, number of mice", "setting": "[1]; [5]", "result": 0}, {"measurement": "Interstitial Fibrosis grade ++, number of mice", "setting": "[1]; [5]", "result": 0}, {"measurement": "Interstitial Fibrosis grade +, number of mice", "setting": "[1]; [5]", "result": 0}, {"measurement": "Number of deaths", "setting": "[1]; [5]", "result": 0}, {"measurement": "Perivascular Fibrosis grade 0, number of mice", "setting": "[1]; [5]", "result": 7}, {"measurement": "Perivascular Fibrosis grade +++, number of mice", "setting": "[1]; [5]", "result": 0}, {"measurement": "Perivascular Fibrosis grade ++, number of mice", "setting": "[1]; [5]", "result": 1}, {"measurement": "Perivascular Fibrosis grade +, number of mice", "setting": "[1]; [5]", "result": 2}, {"measurement": "Vacuolization grade 0, number of mice", "setting": "[1]; [5]", "result": 9}, {"measurement": "Vacuolization grade +++, number of mice", "setting": "[1]; [5]", "result": 0}, {"measurement": "Vacuolization grade ++, number of mice", "setting": "[1]; [5]", "result": 0}, {"measurement": "Vacuolization grade +, number of mice", "setting": "[1]; [5]", "result": 1}, {"measurement": "Interstitial Fibrosis grade 0, number of mice", "setting": "[1]; [6]", "result": 5}, {"measurement": "Interstitial Fibrosis grade +++, number of mice", "setting": "[1]; [6]", "result": 1}, {"measurement": "Interstitial Fibrosis grade ++, number of mice", "setting": "[1]; [6]", "result": 2}, {"measurement": "Interstitial Fibrosis grade +, number of mice", "setting": "[1]; [6]", "result": 1}, {"measurement": "Number of deaths", "setting": "[1]; [6]", "result": 0}, {"measurement": "Perivascular Fibrosis grade 0, number of mice", "setting": "[1]; [6]", "result": 4}, {"measurement": "Perivascular Fibrosis grade +++, number of mice", "setting": "[1]; [6]", "result": 1}, {"measurement": "Perivascular Fibrosis grade ++, number of mice", "setting": "[1]; [6]", "result": 2}, {"measurement": "Perivascular Fibrosis grade +, number of mice", "setting": "[1]; [6]", "result": 2}, {"measurement": "Vacuolization grade 0, number of mice", "setting": "[1]; [6]", "result": 4}, {"measurement": "Vacuolization grade +++, number of mice", "setting": "[1]; [6]", "result": 1}, {"measurement": "Vacuolization grade ++, number of mice", "setting": "[1]; [6]", "result": 2}, {"measurement": "Vacuolization grade +, number of mice", "setting": "[1]; [6]", "result": 2}]}
{"smiles": "N.N.[Cl][Pt][Cl]", "note": "[cisplatin]", "values": [{"measurement": "survival rate", "setting": "[2]; CDDP 5 mg/kg intraperitoneal, 5 consecutive days, 28th day", "result": 90, "unit": "%"}, {"measurement": "survival rate", "setting": "[2]; CDDP 7 mg/kg intraperitoneal, 5 consecutive days, 7th day", "result": 60, "unit": "%"}, {"measurement": "mice survived", "setting": "[2]; CDDP 7 mg/kg intraperitoneal, 5 consecutive days, 28th day", "result": 30, "unit": "%"}, {"measurement": "effect on weight of mice", "setting": "[2]; cisplatin 5 mg/kg doses", "result": "weight loss"}]}
{"smiles": "C[C@@H]1C[C@H]2[C@@H]3CCC4=CC(=O)C=C[C@]4(C)[C@@]3(F)[C@@H](O)C[C@]2(C)[C@@]1(O)C(=O)CO", "note": "[dexamethasone]", "values": [{"measurement": "number of mice with Szapiel grade 0 (no fibrosis)", "setting": "[3]", "result": 0}, {"measurement": "number of mice with Szapiel grade I (mild)", "setting": "[3]", "result": 3}, {"measurement": "number of mice with Szapiel grade II (medium)", "setting": "[3]", "result": 5}, {"measurement": "number of mice with Szapiel grade III (severe)", "setting": "[3]", "result": 4}]}
